Source: US10501443B2, “Pyridone compound as c-met inhibitor” (FUJIAN COSUNTER PHARMACEUTICAL CO., LTD., priority 2016, dated 2019)

Assays:
[1] = test system: human liver cancer MHCC97H cell xenograft; experiment: Pharmacodynamics assay of MHCC97H liver cancer cell subcutaneous xenograft tumor model; type: in vivo, BALB/c nude mice; conditions: for Tumor volume (24th day): 24th day after administration, average ± SEM; for T/C / TGI: based on 24th day tumor volume
Description: Assay 3: Pharmacodynamics Assay of MHCC97H Liver Cancer Cell Subcutaneous Xanograft Tumor Model
MHCC97H cells were cultured in a single layer in-vitro. The culturing condition was RPMI1640 medium supplemented with 10% heat-inactivated fetal bovine serum, 1% penicillin-streptomycin double antibody under 37° C., 5% carbon dioxide. Digestion and passage treatment with trypsin-EDTA was done twice a week. When the cells are in the exponential growing phase, the cells were collected, counted and inoculated.
BALB/c nude mice, male. 6-8 weeks old, weighting 18-22 g.
0.2 mL of a cell suspension containing 5×10^6 MHCC97H was subcutaneously inoculated into the right back of each mouse. Drugs were administrated by group after the average tumor volume reached approximately 172 mm^3.
Aim of the assay: investigation of whether the tumor growth was inhibited, delayed or cured. The diameters of the tumor was measured twice a week using vernier calipers. The formula for calculating the tumor volume is V=0.5a×b2, and a and b represent the long and short diameters of the tumor respectively. The antitumor effect (TGI) of the compounds was evaluated by T-C (days) and T/C (%).

[2] = t1/2 of liver particle metabolism, human; type: in vitro ADME; conditions: liver particle (liver microsomes)
[3] = t1/2 of liver particle metabolism, rat; type: in vitro ADME; conditions: liver particle (liver microsomes)
[4] = t1/2 of liver particle metabolism, mice; type: in vitro ADME; conditions: mouse, liver particle (liver microsomes)
c-MET enzyme = molecular target: T1, c-MET enzyme (Homo sapiens, UniProt P08581); experiment: Binding activity of c-MET enzyme assay (LanthaScreen Eu Kinase Binding Assay); conditions: cMET 5 nM, Tracer 236 30 nM, 60 mins at 4° C.
T1 construct: His (6xHis); purchased invitrogen PV3143
Description: Assay 1: Binding Activity of c-MET Enzyme Assay
(§1) Reagents and Consumables:
Eu-Anti-His AB (MAb Anti 6HIS-K)
The binding of tracer agent and antibody and kinase leaded to high FRET standard, while using kinase inhibitor instead of tracer agent would lead to loss of FRET.
1) The antibody Eu-Anti-His AB, enzyme cMET, tracer agent Tracer236 were diluted.
Double duplicate wells were set and each of them 75 nL.

MHCC97H cells = experiment: Inhibitory effect assay on proliferation (CellTiter-Glo); type: cell-based; conditions: Homo sapiens, 72 h, MHCC97-H, 3 days incubation, read-out: MHCC97H cell IC50
From the text: Assay 2: Inhibitory Effect Assay on Proliferation
as §1
1) Cell culture: DMEM cell medium, fetal bovine serum, DPBS
3) Detection reagent: live cell detection kit CellTiter-Glo
4) Other major consumables and reagents: compound dilution plate, intermediate plate, test plate, DMSO
The amount of ATP directly reflects the number of cells and the state of the cells, thus the number of living cells could be directly detected by quantitatively measuring ATP. The live cell assay kit contains luciferase and its substrate. With the presence of ATP, a stable optical signal would be emitted by the luciferase catalyzed substrate. Thus the amount of ATP in the cell could be determined by detecting the intensity of the signal. The light signal was proportional to the amount of ATP in the cell, while the ATP was positively correlated with the number of living cells, so that the proliferation in the cell could be detected. The assay plate used was analyzed by Envision from PE Corporation.
1. Preparation of the Cell Plates
MHCC97-H cells were seeded separately into 384-well plates, each of the well contains 500 cells. The cell plates were placed and incubated in a carbon dioxide incubator overnight.
2. Preparation of the compound.
Echo was used for 4-time dilution and 9 concentration was prepared, ready for double duplicate wells assay.
3. Compound Treatment of Cells
The compounds were transferred to cell plates at a starting concentration of 10 μM. The cell plates were incubated in a carbon dioxide incubator for 3 days.
The […] reagent was added into the cell plates and the plate was incubated at room temperature for 10 mins to stabilize the luminescence signal. PerkinElmer Envision multi-label analyzer was used for readings.

[5] = in words, prior art section; cited from earlier work
MHCC97H cell = conditions: read-out: MHCC97H cell IC50; prior art section; cited from earlier work

T1 sequence (P08581 956-1390 limits assumed): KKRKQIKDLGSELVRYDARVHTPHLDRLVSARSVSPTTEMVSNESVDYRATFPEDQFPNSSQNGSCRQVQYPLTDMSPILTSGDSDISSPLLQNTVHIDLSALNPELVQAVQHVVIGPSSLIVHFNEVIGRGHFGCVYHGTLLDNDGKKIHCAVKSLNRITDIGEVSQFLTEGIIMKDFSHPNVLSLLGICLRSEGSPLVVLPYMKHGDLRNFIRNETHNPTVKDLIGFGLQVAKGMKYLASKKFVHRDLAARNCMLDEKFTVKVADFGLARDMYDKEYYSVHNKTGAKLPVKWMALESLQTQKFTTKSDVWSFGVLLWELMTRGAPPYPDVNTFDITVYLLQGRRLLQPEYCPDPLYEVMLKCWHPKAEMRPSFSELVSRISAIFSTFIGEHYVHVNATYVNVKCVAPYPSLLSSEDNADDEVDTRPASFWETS

Row | SMILES | IC50 (c-MET enzyme) [nM] | IC50 (MHCC97H cells) [nM] | other results
1 | CC(c1cccc(-c2ncc(OCC3CCN(C)CC3)cn2)c1)n1cc(-c2cc(C#N)ccn2)cc(F)c1=O (single isomer, unassigned) [Embodiment 1-2] | – | – | Tumor volume (24th day) [1]: 153 ± 12 mm^3; T/C [1]: 7.4%; TGI [1]: 101.0%; half-life [2]: 62.1 min; half-life [3]: 36.5 min; half-life [4]: 49.1 min
2 | Cc1cc(-c2ccc(=O)n([C@H](C)c3cccc(-c4ncc(OCC5CCN(C)CC5)cn4)c3)c2)sn1 [Embodiment 3-2] | – | 19 | –
3 | CN1CCC(COc2cnc(-c3cccc(Cn4cc(-c5cc(C#N)ccc5F)ccc4=O)c3)nc2)CC1 [Embodiment 4] | 6.16 | 72.9 | –
4 | Cc1cc(-c2cc(F)c(=O)n(Cc3cccc(-c4ncc(OCC5CCN(C)CC5)cn4)c3)c2)sn1 [Embodiment 5] | 2.9 | 58.8 | –
5 | CN1CCC(COc2cnc(-c3cccc(Cn4cc(-c5cc(C#N)ccn5)ccc4=O)c3)nc2)CC1 [Embodiment 6] | 4.37 | 32.9 | –
6 | CN1CCC(COc2cnc(-c3cccc(Cn4cc(-c5cc(C#N)ccn5)cc(F)c4=O)c3)nc2)CC1 [Embodiment 7] | 15.5 | 22.3 | –
7 | CN1CCC(COc2cnc(-c3cccc(Cn4cc(-c5cnn(C)c5)ccc4=O)c3)nc2)CC1 [Embodiment 10] | 69.5 | 166 | –
8 | Cc1cc(-c2ccc(=O)n(Cc3cccc(-c4ncc(OCC5CCN(C)CC5)cn4)c3)c2)sn1 [Embodiment 11] | 5 | 93.8 | –
9 | Cc1cc(-c2ccc(=O)n(Cc3cccc(-c4ncc(OCC5CCN(C)CC5)cn4)c3)c2)on1 [Embodiment 12] | – | 51.4 | –
10 | CN1CCC(COc2cnc(-c3cccc(Cn4nc(-c5cccc(C#N)c5)ccc4=O)c3)nc2)CC1 [Tepotinib, reference compound] | – | – | Tumor volume (24th day) [1]: 255 ± 5 mm^3; T/C [1]: 12.4%; TGI [1]: 95.6%; clearance rate in vivo [5]: high clearance rate in vivo; metabolic stability [5]: low metabolic stability; IC50 (MHCC97H cell): 6.2 nM

Further lines, with some results ahead:

Row | IC50 (c-MET enzyme) [nM] | SMILES | IC50 (MHCC97H cells) [nM] | other results
11 | 3.79 | Cc1cc(-c2cc(F)c(=O)n([C@H](C)c3cccc(-c4ncc(OCC5CCN(C)CC5)cn4)c3)c2)on1 (single isomer, unassigned) [Embodiment 8-2] | – | Tumor volume (24th day) [1]: 161 ± 6 mm^3; T/C [1]: 7.8%; TGI [1]: 100.6%
12 | 9.33 | Cc1cc(-c2cc(F)c(=O)n(C(C)c3cccc(-c4ncc(OCC5CCN(C)CC5)cn4)c3)c2)sn1 (centres unmarked) [Embodiment 2-2] | 13.8 | –
